System: MDA production (lipid peroxidation) in brain tissue
Test: Malonaldehyde (MDA) production in mouse brain after oral administration and sleep fragmentation
Format: in vivo, mice
Conditions: gavage once a day for 120 days, then 15 days sleep fragmentation, brain cortex, MDA expressed as fold increase
From the text: Male adult mice were obtained having either the human APOE ε4 allele (targeted replacement, n=42) or wild type allele (n=42). […] Administration was by gavage once a day for 120 days. After this period, the subject mice underwent sleep fragmentation (SF) for 15 days. The SF device exposes freely behaving mice in a standard laboratory cage to intermittent tactile stimulation utilizing a motorized mechanical device. Tactile stimulation is produced by a horizontal bar powered by an electrical motor system, which sweeps just above the cage floor from side to side at intermittent functioning mode (2 min). During the […] motion, mice may need to step over the […] passes. Chronic SF may induce inflammatory responses and oxidative stress. After 15 days of SF, the mice were sacrificed and the brain dissected out for MDA and 8-OHdG assays, which are produced by the brain in response to oxidative stress and inflammatory events. MDA production is an indicator of lipid peroxidation. After the mice were sacrificed, an LPO-586 kit (OxisResearch, Portland Oreg.) was used according to the manufacturer's instructions to measure MDA levels in the brain tissue. The animals were anesthetized with CO2 inhalation then decapitated, and the cortex were dissected, snap frozen in liquid nitrogen, and stored at -80° C. until assay the following day. Neuronal tissues were homogenized in 20 mM phosphate buffer (pH 7.4) containing 0.5 mM butylated hydroxytoluene to prevent sample oxidation. […] The samples were then centrifuged and clear supernatants measured at 586 nm. MDA production was then calculated per the standard curve according to the manufacturer's instructions. The relative levels of lipid peroxidation were expressed in fold increase in MDA production.

Compound | MDA production, Diff of Means (MDA-APOE ε4 allele mice (human APOE ε4 targeted replacement)) | MDA production, Diff of Means (MDA-Wild Type mice)
O=C(O)CCCCC1CCSS1 (stereo not drawn) [lipoic acid (SW), lipoic acid] | 0.663 | 0.46
Cc1c(C)c2c(c(C)c1O)CC[C@@](C)(CCC[C@H](C)CCC[C@H](C)CCCC(C)C)O2 [vitamin E (SW), vitamin E] | – | 0.489
